According to ChEMBL document CHEMBL1201862, “PubChem BioAssay data set” (2004):
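Exposure lasted 48 hours, with cells grown in 96-well plates and compounds tested at five concentrations. Here, GI50 denotes the concentration required for 50% inhibition of growth.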 Calls of active or inactive are those of the source. Cut-off read from the data, not from the text of the source: active = GI50 up to about 1.1 µM and inactive = higher.

Assays:
Test in all cases: NCI-60 cell line screen, 48 h
786-0 = system: 786-0
A498 = system: A498
A549 = system: A549
ACHN = system: ACHN
CAKI-1 = system: CAKI-1
CCRF-CEM = system: CCRF-CEM
COLO 205 = system: COLO 205
DU-145 = system: DU-145
EKVX = system: EKVX
HCC 2998 = system: HCC 2998
HCT-116 = system: HCT-116
HCT-15 = system: HCT-15
HOP-62 = system: HOP-62
HOP-92 = system: HOP-92
HT-29 = system: HT-29
Hs-578T = system: Hs-578T
IGROV-1 = system: IGROV-1
K562 = system: K562
KM12 = system: KM12
LOX IMVI = system: LOX IMVI
M14 = system: M14
MCF7 = system: MCF7
MDA-MB-231 = system: MDA-MB-231
MDA-MB-435 = system: MDA-MB-435
MDA-N = system: MDA-N
MOLT-4 = system: MOLT-4
Malme-3M = system: Malme-3M
NCI-H226 = system: NCI-H226
NCI-H23 = system: NCI-H23
NCI-H460 = system: NCI-H460
NCI-H522 = system: NCI-H522
NCI/ADR-RES = system: NCI/ADR-RES
OVCAR-3 = system: OVCAR-3
OVCAR-4 = system: OVCAR-4
OVCAR-5 = system: OVCAR-5
OVCAR-8 = system: OVCAR-8
PC-3 = system: PC-3
RPMI-8226 = system: RPMI-8226
RXF 393 = system: RXF 393
SF-268 = system: SF-268
SF-295 = system: SF-295
SF-539 = system: SF-539
SK-MEL-28 = system: SK-MEL-28
SK-MEL-2 = system: SK-MEL-2
SK-MEL-5 = system: SK-MEL-5
SK-OV-3 = system: SK-OV-3
SN12C = system: SN12C
SNB-19 = system: SNB-19
SNB-75 = system: SNB-75
SR = system: SR
SW-620 = system: SW-620
T47D = system: T47D
TK-10 = system: TK-10
U-251 = system: U-251
UACC-257 = system: UACC-257
UACC-62 = system: UACC-62
UO-31 = system: UO-31

For `C=C1CCN2CC[C@@H](OC(=O)/C(C)=C\C)[C@@H]12`, the GI50 (786-0) was > 100 µM (inactive), the GI50 (A498) was > 100 µM (inactive) and the GI50 (A549) was > 100 µM (inactive). For the same compound, the GI50 (ACHN) was > 100 µM (inactive), the GI50 (CAKI-1) was > 100 µM (inactive) and the GI50 (CCRF-CEM) was > 100 µM (inactive). The GI50 (COLO 205) was > 100 µM (inactive), the GI50 (DU-145) was > 100 µM (inactive) and the GI50 (EKVX) was > 100 µM (inactive). The GI50 (HCC 2998) was > 100 µM (inactive), the GI50 (HCT-116) was > 100 µM (inactive) and the GI50 (HCT-15) was over 100 µM. The GI50 (HOP-62) was > 100 µM (inactive), the GI50 (HOP-92) was > 100 µM (inactive) and the GI50 (HT-29) was 66.2 µM (inactive). For the same compound, the GI50 (Hs-578T) was > 100 µM (inactive), the GI50 (IGROV-1) was > 100 µM (inactive) and the GI50 (K562) was > 100 µM (inactive). The GI50 (KM12) was > 100 µM (inactive), the GI50 (LOX IMVI) was > 100 µM (inactive) and the GI50 (M14) was > 100 µM (inactive). The GI50 (MCF7) was > 100 µM (inactive), the GI50 (MDA-MB-231) was > 100 µM (inactive) and the GI50 (MDA-MB-435) was > 100 µM (inactive). The GI50 (MDA-N) was > 100 µM (inactive), the GI50 (MOLT-4) was > 100 µM (inactive) and the GI50 (Malme-3M) was > 100 µM (inactive). For the same compound, the GI50 (NCI-H226) was > 100 µM (inactive), the GI50 (NCI-H23) was > 100 µM (inactive) and the GI50 (NCI-H460) was > 100 µM (inactive). For the same compound, the GI50 (NCI-H522) was > 100 µM (inactive), the GI50 (NCI/ADR-RES) was > 100 µM (inactive) and the GI50 (OVCAR-3) was > 100 µM (inactive). The GI50 (OVCAR-4) was > 100 µM (inactive), the GI50 (OVCAR-5) was > 100 µM (inactive) and the GI50 (OVCAR-8) was > 100 µM (inactive). The GI50 (PC-3) was > 100 µM (inactive), the GI50 (RPMI-8226) was > 100 µM (inactive) and the GI50 (RXF 393) was > 100 µM (inactive). For the same compound, the GI50 (SF-268) was > 100 µM (inactive), the GI50 (SF-295) was > 100 µM (inactive) and the GI50 (SF-539) was > 100 µM (inactive). For the same compound, the GI50 (SK-MEL-28) was > 100 µM (inactive), the GI50 (SK-MEL-2) was > 100 µM (inactive) and the GI50 (SK-MEL-5) was > 100 µM (inactive). The GI50 (SK-OV-3) was > 100 µM (inactive), the GI50 (SN12C) was > 100 µM (inactive) and the GI50 (SNB-19) was > 100 µM (inactive). For the same compound, the GI50 (SNB-75) was > 100 µM (inactive), the GI50 (SR) was > 100 µM (inactive) and the GI50 (SW-620) was > 100 µM (inactive). The GI50 (T47D) was > 100 µM (inactive), the GI50 (TK-10) was > 100 µM (inactive) and the GI50 (U-251) was > 100 µM (inactive). The GI50 (UACC-257) was > 100 µM (inactive), the GI50 (UACC-62) was > 100 µM (inactive) and the GI50 (UO-31) was > 100 µM (inactive).
